PubChem BioAssay (NCI)
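Compound exposure: 48 hours, 5 concentrations, 96-well plates. GI50 = concentration required for 50% inhibition of growth. The concentration for full growth arrest is given as TGI.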

What was measured:
Experiment in all cases: NCI tumour cell line growth inhibition, 48 h
[1] = test system: COLO 205 colon
[2] = test system: M14 melanoma
[3] = test system: MCF7 breast
[4] = test system: SK-MEL-5 melanoma
[5] = test system: CCRF-CEM leukemia
[6] = test system: OVCAR-8 ovarian
[7] = test system: PC-3 prostate
[8] = test system: OVCAR-5 ovarian
[9] = test system: NCI/ADR-RES ovarian
[10] = test system: EKVX NSCLC

| Compound | GI50 [1] | TGI [1] | GI50 [2] | TGI [2] | GI50 [3] | TGI [3] | GI50 [4] | TGI [4] | GI50 [5] | TGI [5] | GI50 [6] | TGI [6] | GI50 [7] | TGI [7] | GI50 [8] | TGI [8] | GI50 [9] | TGI [9] | GI50 [10] | TGI [10] |
| --- | --- | --- | --- | --- | --- | --- | --- | --- | --- | --- | --- | --- | --- | --- | --- | --- | --- | --- | --- | --- |
| O=C1C(Cl)=C(Nc2ccccc2O)C(=O)N1Cc1ccccc1 | 24.2 µM | 46.8 µM | 18.4 µM | 32.3 µM | 24.5 µM | 64.6 µM | 15.3 µM | 28.6 µM | 14.5 µM | 32.7 µM | 18.3 µM | 34 µM | 18.1 µM | 39.1 µM | 18.5 µM | 32.7 µM | 24.6 µM | 57.1 µM |  |  |
| CO/N=C(/C)c1cccc(Nc2cc(-c3ccccc3)nc3ccc(OC)cc23)c1 | 33.1 µM | 97.8 µM | 6.92 µM | 25.3 µM | 5.71 µM | 56.5 µM | 2.63 µM | 8.13 µM |  |  |  |  | 4.68 µM | 21.6 µM | 15.3 µM | 37.3 µM | 4.7 µM | 24 µM | 10.8 µM | 30.3 µM |
| N#Cc1ccc(OC(=O)Nc2ccc(Cl)c(Cl)c2)cc1 | 3.79 µM | 11.4 µM | 4.3 µM | 59 µM | 2.6 µM | 11.6 µM | 6.03 µM | 19.4 µM | 3.08 µM | 16.1 µM | 3.3 µM | 44.8 µM | 2.87 µM | 21.6 µM | 5.79 µM | > 100 µM | 3.79 µM | > 100 µM |  |  |
| Cc1cccc(C(C)C)c1NC(=O)C(=O)C(C(=O)c1ccccc1F)C1OC(=O)c2ccccc21 (stereo not given) |  | 41 µM |  | 38.5 µM |  |  |  | 28.5 µM |  | 41 µM |  | 59.7 µM |  |  |  | 99.9 µM |  |  |  | 96.6 µM |
| Cc1cc(C(C)(C)C)cc(Cc2cc(C(C)(C)C)cc(Cc3cc(C(C)(C)C)cc(C)c3O)c2O)c1O |  | 29.7 µM |  | 20.5 µM |  |  |  | 21.6 µM |  | 9.04 µM |  | 17.6 µM |  |  |  | 31.3 µM |  |  |  | 22.9 µM |
| c1ccc(CSc2nc3ccccc3nc2-c2cccs2)cc1 |  | > 100 µM |  | > 100 µM |  |  |  | > 100 µM |  | > 100 µM |  | > 100 µM |  |  |  | > 100 µM |  |  |  | > 100 µM |
| COC1=C(Br)C(=O)c2nc(C)ccc2C1=O |  | 24.6 µM |  | 28.4 µM |  |  |  | 32 µM |  |  |  | 16.6 µM |  |  |  | 34.7 µM |  |  |  | 33.4 µM |
| O=C(O)CN(c1ccccc1)S(=O)(=O)c1ccc([N+](=O)[O-])cc1 |  | > 100 µM |  | > 100 µM |  |  |  | > 100 µM |  | > 100 µM |  | > 100 µM |  |  |  | > 100 µM |  |  |  | > 100 µM |
| Cc1cc(C)n(-c2nnc3n2N=C(c2ccc(-c4ccccc4)cc2)CS3)n1 | 2.23 µM | 4.77 µM |  |  | 2.84 µM | > 100 µM | 2.46 µM | 5.88 µM | 3.12 µM | > 100 µM | 3.51 µM | > 100 µM | 3.15 µM | > 100 µM | 5.3 µM | > 100 µM | 3.09 µM | > 100 µM |  |  |
| N.N.NCCCCCCCCCN.O=C([O-])CC(=O)[O-].O=C([O-])CC(=O)[O-].[Pt+4].[Pt+4] | > 100 µM | > 100 µM | 50.5 µM | > 100 µM |  |  | 28.9 µM | 81.7 µM | 21.1 µM | > 100 µM | > 100 µM | > 100 µM |  |  | > 100 µM | > 100 µM |  |  | > 100 µM | > 100 µM |
| CN(C)CCSc1nccc(-c2cc3ccccc3s2)n1 |  | 35.1 µM |  | 32.3 µM |  |  |  | 27.9 µM |  | 59.4 µM |  | 65 µM |  |  |  | 82.4 µM |  |  |  |  |
| C[C@]12CC[C@@H]3c4ccc(O)c([N+](=O)[O-])c4CC[C@H]3[C@@H]1CC[C@@H]2NS(=O)(=O)c1cccc(Br)c1 | 2.78 µM | 7.26 µM | 1.91 µM | 4.11 µM | 1.8 µM | 3.93 µM | 1.67 µM | 3.11 µM | 2.65 µM | 10.4 µM | 2.92 µM | 10.7 µM | 2.56 µM | 11.1 µM | 2.16 µM | 5.17 µM | 2.69 µM | 8.55 µM |  |  |
| CCCCc1c2c(nc3c1CCC/C3=C\c1ccccc1)/C(=C/c1ccccc1)CCC2 |  | > 100 µM |  | > 100 µM |  |  |  | > 100 µM |  | > 100 µM |  | > 100 µM |  |  |  |  |  |  |  | > 100 µM |
| CCOc1ccccc1NC(=O)C(=O)Cc1nc2ccccc2s1 |  | > 100 µM |  | > 100 µM |  |  |  | > 100 µM |  | > 100 µM |  | > 100 µM |  |  |  |  |  |  |  | > 100 µM |
| CC1CN1c1c(C(=O)/C=C/c2ccc(Cl)cc2)c(-c2ccccc2)nn(C)c1=O (stereo not given) |  | 3.67 µM |  | 5.63 µM |  |  |  |  |  | 5.2 µM |  | 5.67 µM |  |  |  | > 10 µM |  |  |  | > 10 µM |
| Cc1cccc(C)c1NC(=O)C(=O)CC(=O)c1cccc([N+](=O)[O-])c1 |  | > 100 µM |  | > 100 µM |  |  |  | > 100 µM |  | > 100 µM |  | > 100 µM |  |  |  | > 100 µM |  |  |  | > 100 µM |
| CC(=O)OC1C2CCC1C1C2C2(Cl)C(Cl)=C(Cl)C1(Cl)C2(Cl)Cl (stereo not given) |  | 28.3 µM |  | 25.3 µM |  |  |  | 26 µM |  |  |  | 29.6 µM |  |  |  | 23.1 µM |  |  |  | 24.1 µM |
| [F][Sn]([F])([c]1ccccc1)[c]1ccccc1 | 1.81 µM | 3.97 µM | 2.08 µM | 4.45 µM |  |  | 1.78 µM | 3.31 µM | 0.688 µM | 3.82 µM | 2.05 µM | 4.88 µM |  |  | 1.51 µM | 3.69 µM |  |  | 1.83 µM | 3.96 µM |
| CC(C)C1=C2CCC3(C)C(CCC4C5C6OCC5(CCC6(C)C)CCC43C)C2(C)CC1 (stereo not given) |  | 37.3 µM |  | 41.6 µM |  | 47.7 µM |  | 50.2 µM |  | 31.9 µM |  | 34.4 µM |  |  |  | > 100 µM |  | 39.6 µM |  | 39.2 µM |
| C/C(CCn1[nH]c(=O)ccc1=O)=N\OCCCc1ccccc1 |  |  |  | > 100 µM |  |  |  | > 100 µM |  | > 100 µM |  | > 100 µM |  |  |  | > 100 µM |  |  |  | > 100 µM |
| CC(C)(C)OC(=O)N1N=NC2C1C1CC(OCc3ccccc3)(OCc3ccccc3)C2O1 (stereo not given) |  | > 100 µM |  | > 100 µM |  |  |  | 32.6 µM |  | 63.5 µM |  |  |  |  |  | > 100 µM |  |  |  |  |
